According to patent US8138168B1 (Takeda Pharmaceutical Company Limited, priority 2007, dated 2012):

Biological target: T1, Recombinant human renin (Homo sapiens, UniProt P00797)
T1 construct: isolate the active form (residues 67-406); made in house; host or cells: FreeStyle 293-F cells (transient expression of pcDNA3.1(+)/hREN)
T1 sequence (P00797 67-406): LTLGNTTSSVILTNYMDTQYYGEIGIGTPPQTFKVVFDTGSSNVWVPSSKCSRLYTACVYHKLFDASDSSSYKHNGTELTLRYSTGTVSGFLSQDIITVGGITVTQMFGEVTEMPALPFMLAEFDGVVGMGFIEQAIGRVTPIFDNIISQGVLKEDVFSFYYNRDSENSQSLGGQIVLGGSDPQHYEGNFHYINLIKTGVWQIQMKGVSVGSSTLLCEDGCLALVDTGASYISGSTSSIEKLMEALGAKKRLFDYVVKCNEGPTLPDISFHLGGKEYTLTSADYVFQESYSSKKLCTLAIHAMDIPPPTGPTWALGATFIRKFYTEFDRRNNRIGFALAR
Experiment: In vitro enzymatic activity assay of renin inhibitors (fluorogenic peptide substrate)
Assay type: biochemical
Conditions: read-out: IC50 of Exemplified Compounds Against Renin
Procedure, shortened: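 Enzyme: recombinant human renin, 3 nM final, 10 min compound pre-incubation at 37 °C; buffer 50 mM Hepes pH 7.4 with 0.1 mg/mL BSA or extra 2% BSA; 5% DMSO.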

SMILES	IC50
N[C@@H](CC(=O)N1CCCC(c2nc3ccccc3[nH]2)C1)c1ccc(C(F)(F)F)cc1 (stereo partly drawn) [Compound 25, (3S)-1-(3-(1H-benzo[d]imidazol-2-yl)piperidin-1-yl)-3-amino-3-(4-(trifluoromethyl)phenyl)propan-1-one]	> 1 µM
COCCCn1c([C@@H]2CCCN(C(=O)C[C@H](N)CNS(=O)(=O)c3ccc(Cl)c(Cl)c3)C2)nc2ccccc21 [Compound 305, N-((S)-2-amino-4-((R)-3-(1-(3-methoxypropyl)-1H-benzo[d]imidazol-2-yl)piperidin-1-yl)-4-oxobutyl)-3,4-dichlorobenzenesulfonamide]	0.1 to 1 µM
COCCCn1c([C@@H]2CCCN(C(=O)C[C@H](N)CNC(=O)N3CCCC3)C2)nc2ccccc21 [Compound 334, N-((S)-2-amino-4-((R)-3-(1-(3-methoxypropyl)-1H-benzo[d]imidazol-2-yl)piperidin-1-yl)-4-oxobutyl)pyrrolidine-1-carboxamide]	> 1 µM
COC(=O)Nc1ccc(-c2ccc(C[C@@H](N)CC(=O)N3CCC[C@@H](c4nc5ccccc5n4CCNC(C)=O)C3)cc2)cc1 [Compound 457, methyl 4′-((R)-4-((R)-3-(1-(2-acetamidoethyl)-1H-benzo[d]imidazol-2-yl)piperidin-1-yl)-2-amino-4-oxobutyl)biphenyl-4-ylcarbamate]	< 0.1 µM
N[C@@H](CC(=O)N1CCCC(c2nc3ccccc3[nH]2)C1)Cc1ccc2ccccc2c1 (stereo partly drawn) [Compound 44, (3R)-1-(3-(1H-benzo[d]imidazol-2-yl)piperidin-1-yl)-3-amino-4-(naphthalen-2-yl)butan-1-one]	> 1 µM
CCCn1c(=O)n(-c2ccc(C[C@@H](N)CC(=O)N3CCC[C@@H](c4nc5ccccc5n4CCCOC)C3)cc2)c2ccccc21 [Compound 221, 1-(4-((R)-2-amino-4-((R)-3-(1-(3-methoxypropyl)-1H-benzo[d]imidazol-2-yl)piperidin-1-yl)-4-oxobutyl)phenyl)-3-propyl-1H-benzo[d]imidazol-2(3H)-one]	< 0.1 µM
COCCCn1c([C@@H]2CCCN(C(=O)C[C@H](N)Cc3ccc4ccccc4c3)C2)nc2ccc(C(C)C)cc21 [Compound 116, (R)-3-amino-1-((R)-3-(6-isopropyl-1-(3-methoxypropyl)-1H-benzo[d]imidazol-2-yl)piperidin-1-yl)-4-(naphthalen-2-yl)butan-1-one]	0.1 to 1 µM
COCCCn1c([C@@H]2CCCN(C(=O)C[C@H](N)c3ccccc3)C2)nc2ccccc21 [Compound 89, (S)-3-amino-1((R)-3-(1-(3-methoxypropyl)-1H-benzo[d]imidazol-2-yl)piperidin-1-yl)-3-phenylpropan-1-one]	> 1 µM
COc1cccc([C@@H](N)CC(=O)N2CCCC(c3nc4ccccc4[nH]3)C2)c1OC (stereo partly drawn) [Compound 28, (3S)-1-(3-(1H-benzo[d]imidazol-2-yl)piperidin-1-yl)-3-amino-3-(2,3-dimethoxyphenyl)propan-1-one]	> 1 µM
COCCCn1c([C@@H]2CCCN(C(=O)[C@@H]3CN(C(=O)c4cccc5ccccc45)C[C@H]3N)C2)nc2ccccc21 [Compound 376, ((3R,4S)-1-(1-naphthoyl)-4-aminopyrrolidin-3-yl)((R)-3-(1-(3-methoxypropyl)-1H-benzo[d]imidazol-2-yl)piperidin-1-yl)methanone]	0.1 to 1 µM
COCCCn1c([C@@H]2CCCN(C(=O)C[C@H](N)Cc3ccc(-c4csc(N5CC[C@H](O)C5)n4)cc3)C2)nc2ccccc21 [Compound 435, (R)-3-amino-4-(4-(2-((S)-3-hydroxypyrrolidin-1-yl)thiazol-4-yl)phenyl)-1-((R)-3-(1-(3-methoxypropyl)-1H-benzo[d]imidazol-2-yl)piperidin-1-yl)butan-1-one]	< 0.1 µM
O=C(NCc1ccco1)N1CCCC(c2nc3ccccc3[nH]2)C1 (stereo not shown) [Compound 21, 3-(1H-benzo[d]imidazol-2-yl)-N-(furan-2-ylmethyl)piperidine-1-carboxamide]	> 1 µM

Other lines, results leading:

IC50	SMILES
> 1 µM	COCCCn1c([C@@H]2CCCN(C(=O)[C@@H]3CN(C(=O)c4cc5ccccc5o4)C[C@H]3N)C2)nc2ccccc21 [Compound 406, ((3R,4S)-4-amino-1-(benzofuran-2-carbonyl)pyrrolidin-3-yl)((R)-3-(1-(3-methoxypropyl)-1H-benzo[d]imidazol-2-yl)piperidin-1-yl)methanone]
0.1 to 1 µM	COCCCn1c([C@@H]2CCCN(C(=O)[C@@H]3CN(S(=O)(=O)c4ccc(F)cc4Cl)C[C@H]3N)C2)nc2ccccc21 [Compound 349, ((3R,4S)-4-amino-1-(2-chloro-4-fluorophenylsulfonyl)pyrrolidin-3-yl)((R)-3-(1-(3-methoxypropyl)-1H-benzo[d]imidazol-2-yl)piperidin-1-yl)methanone]
< 0.1 µM	COCCCn1c([C@@H]2CCCN(C(=O)C[C@H](N)Cc3ccc(-c4cccc(OC)c4)cc3)C2)nc2ccccc21 [Compound 158, (R)-3-Amino-4-(3′-methoxybiphenyl-4-yl)-1-((R)-3-(1-(3-methoxypropyl)-1H-benzo[d]imidazol-2-yl)piperidin-1-yl)butan-1-one]
> 1 µM	COCCCn1c([C@@H]2CCCN(C(=O)[C@@H]3CN(S(=O)(=O)c4ccc([N+](=O)[O-])cc4OC)C[C@H]3N)C2)nc2ccccc21 [Compound 411, ((3R,4S)-4-amino-1-(2-methoxy-4-nitrophenylsulfonyl)pyrrolidin-3-yl)((R)-3-(1-(3-methoxypropyl)-1H-benzo[d]imidazol-2-yl)piperidin-1-yl)methanone]
> 1 µM	NC(=O)CCn1c([C@@H]2CCCN(C(=O)C[C@H](N)Cc3ccc(-c4ccc5c(c4)OCCO5)cc3)C2)nc2ccccc21 [Compound 484, 3-(2-((R)-1-((R)-3-amino-4-(4-(2,3-dihydrobenzo[b][1,4]dioxin-6-yl)phenyl)butanoyl)piperidin-3-yl)-1H-benzo[d]imidazol-1-yl)propanamide]
0.1 to 1 µM	COCCCn1c([C@@H]2CCCN(C(=O)C[C@H](N)CNC(=O)c3cccc(Cl)c3)C2)nc2ccccc21 [Compound 298, N-((S)-2-amino-4-((R)-3-(1-(3-methoxypropyl)-1H-benzo[d]imidazol-2-yl)piperidin-1-yl)-4-oxobutyl)-3-chlorobenzamide]
0.1 to 1 µM	COCCCn1c([C@@H]2CCCN(C(=O)C[C@H](N)CNC(=O)c3ccc(-c4cc(Cl)ccc4Cl)o3)C2)nc2ccccc21 [Compound 276, N-((S)-2-amino-4-((R)-3-(1-(3-methoxypropyl)-1H-benzo[d]imidazol-2-yl)piperidin-1-yl)-4-oxobutyl)-5-(2,5-dichlorophenyl)furan-2-carboxamide]
< 0.1 µM	COCCCn1c([C@@H]2CCCN(C(=O)C[C@H](N)Cc3ccc(-c4ccc(N5CCOCC5)cc4)cc3)C2)nc2ccccc21 [Compound 128, (R)-3-amino-1-((R)-3-(1-(3-methoxypropyl)-1H-benzo[d]imidazol-2-yl)piperidin-1-yl)-4-(4′-morpholinobiphenyl-4-yl)butan-1-one]
< 0.1 µM	COCCCn1c([C@@H]2CCCN(C(=O)C[C@H](N)CNC(=O)c3ccc(-c4cccs4)cc3)C2)nc2ccccc21 [Compound 259, N-((S)-2-amino-4-((R)-3-(1-(3-methoxypropyl)-1H-benzo[d]imidazol-2-yl)piperidin-1-yl)-4-oxobutyl)-4-(thiophen-2-yl)benzamide]
> 1 µM	COCCCn1c([C@@H]2CCCN(C(=O)[C@@H]3CN(S(=O)(=O)c4cc(Cl)ccc4OC)C[C@H]3N)C2)nc2ccccc21 [Compound 412, ((3R,4S)-4-amino-1-(5-chloro-2-methoxyphenylsulfonyl)pyrrolidin-3-yl)((R)-3-(1-(3-methoxypropyl)-1H-benzo[d]imidazol-2-yl)piperidin-1-yl)methanone]
0.1 to 1 µM	COCCCn1c(C2CCCN(C(=O)C[C@H](N)Cc3ccc(Cl)cc3)C2)nc2ccccc21 (stereo partly drawn) [Compound 24, (3R)-3-amino-4-(4-chlorophenyl)-1-(3-(1-(3-methoxypropyl)-1H-benzo[d]imidazol-2-yl)piperidin-1-yl)butan-1-one]
> 1 µM	COC(=O)[C@H](CC(C)C)NC(=O)N1CCCC(c2nc3ccccc3[nH]2)C1 (stereo partly drawn) [Compound 19, (2S)-methyl 2-(3-(1H-benzo[d]imidazol-2-yl)piperidine-1-carboxamido)-4-methylpentanoate]
< 0.1 µM	COCCCn1c([C@@H]2CCCN(C(=O)C[C@H](N)CNC(=O)c3ccc(-c4ccccc4)o3)C2)nc2ccccc21 [Compound 251, N-((S)-2-amino-4-((R)-3-(1-(3-methoxypropyl)-1H-benzo[d]imidazol-2-yl)piperidin-1-yl)-4-oxobutyl)-5-phenylfuran-2-carboxamide]
< 0.1 µM	COCCCn1c([C@@H]2CCCN(C(=O)C[C@H](N)Cc3ccc(-c4ccc(NC(C)=O)cc4)cc3)C2)nc2c(F)cccc21 [Compound 491, N-(4′-((R)-2-amino-4-((R)-3-(4-fluoro-1-(3-methoxypropyl)-1H-benzo[d]imidazol-2-yl)piperidin-1-yl)-4-oxobutyl)biphenyl-4-yl)acetamide]
> 1 µM	N[C@H](C(=O)N1CCCC(c2nc3ccccc3[nH]2)C1)C1CCCCC1 (stereo partly drawn) [Compound 61, (2S)-1-(3-(1H-benzo[d]imidazol-2-yl)piperidin-1-yl)-2-amino-2-cyclohexylethanone]
0.1 to 1 µM	COCCCn1c([C@@H]2CCCN(C(=O)[C@@H]3CN(S(=O)(=O)c4cccc5ccccc45)C[C@H]3N)C2)nc2ccccc21 [Compound 354, ((3R,4S)-4-amino-1-(naphthalen-1-ylsulfonyl)pyrrolidin-3-yl)((R)-3-(1-(3-methoxypropyl)-1H-benzo[d]imidazol-2-yl)piperidin-1-yl)methanone]
